From patent US7038049B2, “Haloanilino quinazolines and therapeutic use thereof” (Parker Hughes Institute, priority 1999, dated 2006)

How the values were obtained:
Format in all cases: cell-based
[1] = tested on: U373 human brain tumor cells; experiment: MTT cytotoxicity assay, U373; settings: 24–36 hours
Experimental: (§1) The cytotoxicity assay of various compounds against human tumor cell lines was performed using the MTT (3-[4,5-dimethylthiazol-2-yl]-2,5-diphenyl tetrazolium bromide) assay (Boehringer Mannheim Corp., Indianapolis, Ind.). Briefly, exponentially growing tumor cells were seeded into a 96-well plate at a density of 2.5×10^4 cells/well and incubated for 36 hours at 37° C. prior to drug exposure. On the day of treatment, culture medium was carefully aspirated from the wells and replaced with fresh medium containing the quinazoline compounds at concentrations ranging from 0.1 to 250 μM. Triplicate wells were used for each treatment.
(§2) Human cell lines were obtained from American Type Culture Collection (Rockville, Md.) and maintained as a continuous cell line in Dulbecco's modified Eagles' medium supplemented with 10% fetal bovine serum and antibiotics. Cells used in this study include human leukemia cells (NALM-6 and MOLT-3), human breast cancer cells ([…]), human prostate cancer cells (PC3), and human brain tumor cells (U373).
(§3) The cells were incubated with the various compounds for 24–36 hours at 37° C. in a humidified 5% CO2 atmosphere. To each well, 10 μl of MTT (0.5 mg/ml final concentration) was added and the plates were incubated at 37° C. for 4 hours to allow MTT to form formazan crystals by reacting with metabolically active cells. The formazan crystals were solubilized overnight at 37° C. in a solution containing 10% SDS in 0.01 M HCl. The absorbance of each well was measured in a microplate reader (Labsystems) at 540 nm and a reference wavelength of 690 nm. To translate the OD 540 values into the number of live cells in each well, the OD 540 values were compared to those on standard OD 540—versus—cell number curves generated for each cell line. The percent survival was calculated using the formula:
(§4) [formula] The IC50 values were calculated by non-linear regression analysis. Detection of Apoptosis

[2] = tested on: BT20 human breast cancer cells; experiment: MTT cytotoxicity assay, BT20; settings: Homo sapiens, 24–36 hours
Experimental: as §1, §2, §3, §4

[3] = tested on: MOLT-3 human leukemia cells; experiment: MTT cytotoxicity assay, MOLT-3; settings: 24–36 hours
Experimental: as §1, §2, §3, §4

[4] = tested on: NALM-6 human leukemia cells; experiment: MTT cytotoxicity assay, NALM-6; settings: 24–36 hours
Experimental: as §1, §2, §3, §4

[5] = Homo sapiens, U373 MG, Table 4, OH substituted
[6] = BT-20, Table 2, chloro substituted
[7] = Homo sapiens, MOLT-3, Table 2, chloro substituted
[8] = Homo sapiens, MOLT-3, Table 4, OH substituted
[9] = Homo sapiens, NALM-6, Table 2, chloro substituted
[10] = Homo sapiens, NALM-6, Table 4, OH substituted
[11] = BT-20, Table 1, bromo substituted
[12] = Homo sapiens, MOLT-3, Table 1, bromo substituted
[13] = Homo sapiens, NALM-6, Table 1, bromo substituted

| SMILES | IC50 [2, 6] [µM] | IC50 [3, 7] [µM] | IC50 [4, 9] [µM] | IC50 [2, 11] [µM] | IC50 [3, 12] [µM] | IC50 [4, 13] [µM] | further results |
| --- | --- | --- | --- | --- | --- | --- | --- |
| COc1cc2ncnc(Nc3ccc(O)c(Cl)c3)c2cc1OC [HI-P197, 4-(3′-Chloro-4′-hydroxylphenyl)-amino-6,7-dimethoxyquinazoline] | 137 | 68 | 39.3 |  |  |  | IC50 [1, 5]: > 250 µM; IC50 ([2]; BT-20, Table 4, OH substituted): 71.5 µM; IC50 [3, 8]: 63.8 µM; IC50 [4, 10]: 68.5 µM |
| COc1cc2ncnc(Nc3ccc(Cl)c4ccccc34)c2cc1OC [HI-P415, 4-(4′-Chloronaphthy-1′)-amino-6,7-dimethoxyquinazoline] | 38.1 | > 250 | 67.9 |  |  |  |  |
| COc1cc2ncnc(Nc3c(Br)cccc3Br)c2cc1OC [HI-P262, 4-(2′,6′-Dibromophenyl)-amino-6,7-dimethoxyquinazoline] |  |  |  | > 250 | > 250 | > 250 |  |
| COc1cc2ncnc(Nc3cc(I)c(O)c(I)c3)c2cc1OC [HI-P294, 4-(4′-Hydroxy-3,5-diiodophenyl)-amino-6,7-dimethoxy-quinazoline] |  |  |  |  |  |  | IC50 ([1]; Homo sapiens, U373 MG, Table 3, iodide substituted): > 250 µM; IC50 ([1]; Table 4, OH substituted): > 250 µM; IC50 ([2]; BT-20, Table 3, iodide substituted): > 250 µM; IC50 ([2]; BT-20, Table 4, OH substituted): > 250 µM; IC50 ([3]; Homo sapiens, MOLT-3, Table 3, iodide substituted): > 250 µM; IC50 [3, 8]: > 250 µM; IC50 ([4]; Homo sapiens, NALM-6, Table 3, iodide substituted): > 250 µM; IC50 [4, 10]: > 250 µM |
| COc1cc2ncnc(Nc3cc(Br)c(O)c(Br)c3)c2cc1OC [HI-P97, 4-(3′,5′-Dibromo-4′-hydroxylphenyl)-amino-6,7-dimethoxyquinazoline] |  |  |  | 26.1 | > 250 | > 250 | IC50 [1, 5]: 161 µM; IC50 ([3]; Table 4, OH substituted): > 250 µM; IC50 ([4]; Table 4, OH substituted): > 250 µM |
| COc1cc2ncnc(Nc3ccc(C)cc3)c2cc1OC [HI-P234] |  |  |  | > 250 | > 250 | > 250 |  |
| COc1cc2ncnc(Nc3ccccc3Cl)c2cc1OC [HI-P268, 4-(2′-Chlorophenyl)-amino-6,7-dimethoxyquinazoline] | 122 | 227 | 215 |  |  |  |  |
| COc1cc2ncnc(Nc3ccc(Cl)cc3)c2cc1OC [HI-P269, 4-(4′-Chlorophenyl)-amino-6,7-dimethoxyquinazoline] | > 250 | > 250 | > 250 |  |  |  |  |
| COc1cc2ncnc(Nc3cccc(Cl)c3)c2cc1OC [HI-P87, 4-(3′-Chlorophenyl)-amino-6,7-dimethoxyquinazoline] | > 250 | > 105 | 95.9 |  |  |  |  |
| COc1cc2ncnc(Nc3cccc(Br)c3)c2cc1OC [HI-P79, 4-(3′-Bromophenyl)-amino-6,7-dimethoxyquinazoline] |  |  |  | 202 | 195 | 142 |  |
| COc1cc2ncnc(Nc3ccc(O)cc3O)c2cc1OC [HI-P192, 4-(2′,4′-Dihydroxyphenyl)-amino-6,7-dimethoxyquinazoline] |  |  |  |  |  |  | IC50 [1, 5]: > 250 µM; IC50 ([2]; BT-20, Table 4, OH substituted): > 250 µM; IC50 [3, 8]: > 250 µM; IC50 [4, 10]: > 250 µM |
| COc1cc2ncnc(Nc3ccc4c(c3)Cc3cc(Br)ccc3-4)c2cc1OC [HI-P160, 4-[(7′-Bromofluorene)-2′]-amino-6,7-dimethoxyquinazoline] |  |  |  | 25.5 | 241 | 135 |  |
| COc1cc2ncnc(Nc3c(Br)cc(C)cc3Br)c2cc1OC [HI-P241, 4-(2′,6′-Dibromo-4′-methylphenyl)-amino-6,7-dimethoxyquinazoline] |  |  |  | > 250 | > 250 | > 250 |  |
| COc1cc2ncnc(Nc3cc(Br)c(C)c(Br)c3)c2cc1OC [HI-P212, 4-(3′,5′-Dibromo-4′-methylphenyl)-amino-6,7-dimethoxyquinazoline] |  |  |  | > 250 | 54.5 | 52.7 |  |
| COc1cc2ncnc(Nc3c(Br)cc(Br)cc3Br)c2cc1OC [HI-P222, 4-(2′, 4′, 6′-Tribromophenyl)amino-6,7-dimethoxyquinazoline] |  |  |  | > 250 | 48.3 | 34 |  |
